Measured values from patent US9067945B2, “Selective phosphodiesterase 9A inhibitors as medicaments for improving cognitive processes” (Boehringer Ingehleim International GmbH, priority 2002, dated 2015).
Entries after “also recorded” stand apart in the source; their conditions may differ.

Legend:
PDE3B = PDE3B (Homo sapiens (Human), UniProt Q13370); experiment: PDE inhibition, recombinant PDE3B (SPA); type: biochemical; conditions: Isoenzyme PDE3B
From the text: (§1) Recombinant PDE1C (GenBank/EMBL Accession Number: NM_005020, Loughney et al. J. Biol. Chem. 1996 271, 796-806), PDE2A (GenBank/EMBL Accession Number: NM_002599, Rosman et al. Gene 1997 191, 89-95), PDE3B (GenBank/EMBL Accession Number: NM_000922, Miki et al. Genomics 1996, 36, 476-485), PDE4B (GenBank/EMBL Accession Number: NM_002600, Obernolte et al. Gene. 1993, 129, 239-247), PDE5A (GenBank/EMBL Accession Number: NM_001083, Loughney et al. Gene 1998, 216, 139-147), PDE7B (GenBank/EMBL Accession Number: NM_018945, Hetman et al. Proc. Natl. Acad. Sci. U.S.A. 2000, 97, 472-476), PDE8A (GenBank/EMBL Accession Number: AF—056490, Fisher et al. Biochem. Biophys. Res. Commun. […]
(§2) The test substances are dissolved in 100% DMSO and serially diluted to determine their in vitro effect on PDE 9A. […] The plates are then measured for 30 s per well in a Microbeta scintillation counter (Wallac Inc., Atlanta, Ga.). IC50 values are determined from the graphical plot of the substance concentration versus the percentage inhibition.
(§3) The in vitro effect of test substances on recombinant PDE3B, PDE4B, PDE7B, PDE8A, PDE10A and PDE11A is determined in accordance with the assay protocol described above for PDE9A with the following adaptations: [5′,8-^3H] adenosine 3′,5′-cyclic phosphate (1 μCi/μL; Amersham Pharmacia Biotech., Piscataway, N.J.) is used as substrate. […]

[1] = test system: rat hippocampus slices, fEPSP after weak tetanus; experiment: Long-term potentiation in hippocampus slices; conditions: 10 μM, flushed in 10 minutes before to 30 minutes after weak tetanus, vs 0.01% DMSO control, FIG. 2
PDE11 = PDE11 (Homo sapiens (Human), UniProt Q9HCR9); experiment: PDE inhibition, recombinant PDE11A (SPA); type: biochemical; conditions: Isoenzyme PDE11, human
From the text: as §1, §2, §3

[2] = test system: primary rat (E18) cortex cultures, intracellular cGMP; experiment: Increasing the intracellular neuronal cGMP concentration in cell cultures; type: cell-based; conditions: primary rat cortical neurons, incubation 20 min, FIG. 1
Experimental: Rat embryos (embryonic day E17-E19) were decapitated, and the heads were transferred into dissection dishes filled with dissection medium (DMEM, penicillin/streptomycin; both from Gibco). The scalp and the roof of the skull were removed, and the exposed brains were transferred into another Petri dish with dissection medium. Using a binocular microscope and two forceps, the cerebrum (cortex) was isolated and cooled to 4° C. with ice. This dissection and the isolation of the cortical neurons were then carried out in accordance with a standard protocol using the Papain kit (Worthington Biochemical Corporation, Lakewood, N.J. 08701, USA) (Huettner et al. J. Neurosci. 1986, 6, 3044-3060). The mechanically isolated cortical neurons were cultivated at 150,000 cells/well in 200 μl of neurobasal medium/well (neurobasal; B27 supplement; 2 mM L-glutamine; in the presence of penicillin/streptomycin; all agents from Gibco) in 96-well plates (pretreated with poly-D-lysine/100 μg/ml for 30 min) under standard conditions (37° C., 5% CO2) for 7 days. After 7 days, the medium was removed and the cells were washed with HBSS buffer (Hank's balanced salt solution, Gibco/BRL). […] Subsequently, the cells were lyzed in 200 μl of lysis buffer (cGMP kit code RPN 226; from Amersham Pharmacia Biotech.), and the cGMP concentration was measured as stated by the manufacturer. […]

PDE2A = PDE2A (Homo sapiens (Human), UniProt O00408); experiment: PDE inhibition, recombinant PDE2A (SPA); type: biochemical; conditions: Isoenzyme PDE2A
From the text: as §1, §2, §3

PDE4B = PDE4B (Homo sapiens (Human), UniProt Q07343); experiment: PDE inhibition, recombinant PDE4B (SPA); type: biochemical; conditions: Isoenzyme PDE4B
PDE8A = PDE8A (Homo sapiens, UniProt O60658); experiment: PDE inhibition, recombinant PDE8A (SPA); type: biochemical; conditions: Isoenzyme PDE8A
[3] = test system: rats, learning and memory; experiment: Social recognition test; type: in vivo, rat; conditions: intraperitoneal 0.1-3.0 mg/kg directly after trial 1, retention time 24 hours, FIG. 3
Experimental: Adult rats housed in groups were placed singly in test cages 30 min before the start of the test. Four minutes before the start of the test, the test animal was put in an observation box. After this adaptation time, a juvenile animal was put in with the test animal and the absolute time for which the adult animal inspected the young one was measured for 2 min (trial 1). All behaviors clearly directed at the young animal were measured, i.e. anogenital inspection, pursuit and grooming, during which the old animal was no further than 1 cm from the young animal. The juvenile was then removed, and the adult was treated with Example 2 or vehicle and subsequently returned to its own cage. The test was repeated after a retention time of 24 hours (trial 2). A diminished social interaction time compared with trial 1 would indicate that the adult rat remembers the young animal.
The adult animals received intraperitoneal injections directly following trial 1 either with vehicle (10% ethanol, 20% Solutol, 70% physiological saline) or 0.1 mg/kg, 0.3 mg/kg, 1.0 mg/kg or 3.0 mg/kg of Example 2 dissolved in 10% ethanol, 20% Solutol, 70% physiological saline. […] They had consequently forgotten that they had already had contact with the young animal.

PDE10A = PDE10A (Homo sapiens (Human), UniProt Q9Y233); experiment: PDE inhibition, recombinant PDE10A (SPA); type: biochemical; conditions: Isoenzyme PDE10A
From the text: as §1, §2, §3

PDE5A = PDE5A (Homo sapiens (Human), UniProt O76074); experiment: PDE inhibition, recombinant PDE5A (SPA); type: biochemical; conditions: Isoenzyme PDE5A
From the text: as §1, §2, §3

PDE7B = PDE7B (Homo sapiens (Human), UniProt Q9NP56); experiment: PDE inhibition, recombinant PDE7B (SPA); type: biochemical; conditions: Isoenzyme PDE7B
From the text: as §1, §2, §3

Murine PDE9A = Murine PDE9A (Mus musculus (Mouse), UniProt O70628); conditions: concentrations below 200 μM; cited from earlier work
Human PDE9A = Human PDE9A (Homo sapiens (Human), UniProt O76083); conditions: concentrations of up to 100 μM; cited from earlier work
Chain of Human PDE9A (O76083 whole entry): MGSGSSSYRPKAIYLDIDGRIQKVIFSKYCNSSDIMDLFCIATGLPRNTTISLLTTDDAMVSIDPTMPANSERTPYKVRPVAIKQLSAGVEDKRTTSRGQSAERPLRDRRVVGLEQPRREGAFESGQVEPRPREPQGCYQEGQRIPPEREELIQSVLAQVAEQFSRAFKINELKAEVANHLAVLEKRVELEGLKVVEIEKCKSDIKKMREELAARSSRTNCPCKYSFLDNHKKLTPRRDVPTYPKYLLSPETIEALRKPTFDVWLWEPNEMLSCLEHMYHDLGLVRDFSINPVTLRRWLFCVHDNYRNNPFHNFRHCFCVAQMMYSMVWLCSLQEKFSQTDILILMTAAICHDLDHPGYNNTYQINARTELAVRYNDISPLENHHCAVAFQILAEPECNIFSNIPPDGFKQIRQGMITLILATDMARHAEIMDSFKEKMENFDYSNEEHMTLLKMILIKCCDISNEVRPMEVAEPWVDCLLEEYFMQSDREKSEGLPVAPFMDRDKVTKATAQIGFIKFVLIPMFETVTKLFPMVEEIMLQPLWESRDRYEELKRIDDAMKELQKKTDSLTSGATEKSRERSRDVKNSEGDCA

Chain of PDE11 (Q9HCR9 445-933, change not shown): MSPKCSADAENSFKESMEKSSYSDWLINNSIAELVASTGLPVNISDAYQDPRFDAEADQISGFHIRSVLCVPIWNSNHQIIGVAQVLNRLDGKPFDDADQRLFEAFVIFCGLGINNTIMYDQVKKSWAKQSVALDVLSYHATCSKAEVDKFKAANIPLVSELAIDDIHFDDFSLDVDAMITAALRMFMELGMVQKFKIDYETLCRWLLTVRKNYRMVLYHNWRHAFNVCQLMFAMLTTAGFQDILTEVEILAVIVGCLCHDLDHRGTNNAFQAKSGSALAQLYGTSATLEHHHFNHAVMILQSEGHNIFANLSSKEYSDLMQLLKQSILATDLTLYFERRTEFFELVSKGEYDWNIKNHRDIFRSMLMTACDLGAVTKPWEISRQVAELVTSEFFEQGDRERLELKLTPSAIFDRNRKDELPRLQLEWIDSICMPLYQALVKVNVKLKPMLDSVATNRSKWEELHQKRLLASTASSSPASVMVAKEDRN
Chain of PDE8A (O60658 whole entry, looked up): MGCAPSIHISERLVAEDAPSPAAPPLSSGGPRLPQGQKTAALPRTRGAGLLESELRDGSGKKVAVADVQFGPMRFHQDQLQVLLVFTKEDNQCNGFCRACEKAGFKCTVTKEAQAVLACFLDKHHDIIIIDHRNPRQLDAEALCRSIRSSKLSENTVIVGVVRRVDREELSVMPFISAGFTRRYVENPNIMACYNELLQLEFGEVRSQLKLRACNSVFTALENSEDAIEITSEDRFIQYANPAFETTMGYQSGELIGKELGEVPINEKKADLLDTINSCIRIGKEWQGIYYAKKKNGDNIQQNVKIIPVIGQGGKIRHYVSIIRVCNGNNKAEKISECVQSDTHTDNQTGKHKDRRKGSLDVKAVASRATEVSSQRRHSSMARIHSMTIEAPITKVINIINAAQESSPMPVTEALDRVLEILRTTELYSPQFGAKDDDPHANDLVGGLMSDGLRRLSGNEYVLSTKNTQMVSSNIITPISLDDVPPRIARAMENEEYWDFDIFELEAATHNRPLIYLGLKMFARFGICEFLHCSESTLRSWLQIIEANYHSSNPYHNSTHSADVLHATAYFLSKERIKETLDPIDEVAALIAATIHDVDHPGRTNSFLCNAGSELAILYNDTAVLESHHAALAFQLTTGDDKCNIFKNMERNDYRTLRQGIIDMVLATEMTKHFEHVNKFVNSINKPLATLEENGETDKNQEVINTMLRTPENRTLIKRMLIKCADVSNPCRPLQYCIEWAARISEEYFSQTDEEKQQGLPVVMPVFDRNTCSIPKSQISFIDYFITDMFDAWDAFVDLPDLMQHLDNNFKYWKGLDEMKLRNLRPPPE
Chain of PDE2A (O00408 whole entry): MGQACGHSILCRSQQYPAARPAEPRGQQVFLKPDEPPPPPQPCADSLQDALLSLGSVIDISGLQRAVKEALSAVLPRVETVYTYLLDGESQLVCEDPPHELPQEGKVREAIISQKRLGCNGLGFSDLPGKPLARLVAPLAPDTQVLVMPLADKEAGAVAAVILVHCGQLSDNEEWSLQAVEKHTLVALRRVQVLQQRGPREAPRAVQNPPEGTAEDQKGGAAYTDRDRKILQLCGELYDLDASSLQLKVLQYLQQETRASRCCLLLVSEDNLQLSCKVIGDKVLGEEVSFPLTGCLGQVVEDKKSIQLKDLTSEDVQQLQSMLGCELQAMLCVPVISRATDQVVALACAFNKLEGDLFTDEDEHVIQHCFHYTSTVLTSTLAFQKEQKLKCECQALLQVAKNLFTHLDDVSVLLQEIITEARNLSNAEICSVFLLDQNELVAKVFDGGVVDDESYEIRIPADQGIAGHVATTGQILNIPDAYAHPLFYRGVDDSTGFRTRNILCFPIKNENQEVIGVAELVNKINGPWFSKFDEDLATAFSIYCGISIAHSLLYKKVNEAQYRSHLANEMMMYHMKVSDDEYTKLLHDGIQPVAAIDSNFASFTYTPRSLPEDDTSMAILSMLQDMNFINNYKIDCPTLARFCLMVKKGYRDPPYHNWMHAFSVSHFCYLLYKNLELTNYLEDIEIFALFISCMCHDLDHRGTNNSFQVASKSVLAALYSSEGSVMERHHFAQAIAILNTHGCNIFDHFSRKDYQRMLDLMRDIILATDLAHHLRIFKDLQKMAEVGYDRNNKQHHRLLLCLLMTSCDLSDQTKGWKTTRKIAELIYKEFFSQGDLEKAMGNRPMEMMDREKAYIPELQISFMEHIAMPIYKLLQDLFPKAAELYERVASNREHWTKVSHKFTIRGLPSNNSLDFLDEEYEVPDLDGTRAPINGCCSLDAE
Chain of PDE3B (Q13370 whole entry): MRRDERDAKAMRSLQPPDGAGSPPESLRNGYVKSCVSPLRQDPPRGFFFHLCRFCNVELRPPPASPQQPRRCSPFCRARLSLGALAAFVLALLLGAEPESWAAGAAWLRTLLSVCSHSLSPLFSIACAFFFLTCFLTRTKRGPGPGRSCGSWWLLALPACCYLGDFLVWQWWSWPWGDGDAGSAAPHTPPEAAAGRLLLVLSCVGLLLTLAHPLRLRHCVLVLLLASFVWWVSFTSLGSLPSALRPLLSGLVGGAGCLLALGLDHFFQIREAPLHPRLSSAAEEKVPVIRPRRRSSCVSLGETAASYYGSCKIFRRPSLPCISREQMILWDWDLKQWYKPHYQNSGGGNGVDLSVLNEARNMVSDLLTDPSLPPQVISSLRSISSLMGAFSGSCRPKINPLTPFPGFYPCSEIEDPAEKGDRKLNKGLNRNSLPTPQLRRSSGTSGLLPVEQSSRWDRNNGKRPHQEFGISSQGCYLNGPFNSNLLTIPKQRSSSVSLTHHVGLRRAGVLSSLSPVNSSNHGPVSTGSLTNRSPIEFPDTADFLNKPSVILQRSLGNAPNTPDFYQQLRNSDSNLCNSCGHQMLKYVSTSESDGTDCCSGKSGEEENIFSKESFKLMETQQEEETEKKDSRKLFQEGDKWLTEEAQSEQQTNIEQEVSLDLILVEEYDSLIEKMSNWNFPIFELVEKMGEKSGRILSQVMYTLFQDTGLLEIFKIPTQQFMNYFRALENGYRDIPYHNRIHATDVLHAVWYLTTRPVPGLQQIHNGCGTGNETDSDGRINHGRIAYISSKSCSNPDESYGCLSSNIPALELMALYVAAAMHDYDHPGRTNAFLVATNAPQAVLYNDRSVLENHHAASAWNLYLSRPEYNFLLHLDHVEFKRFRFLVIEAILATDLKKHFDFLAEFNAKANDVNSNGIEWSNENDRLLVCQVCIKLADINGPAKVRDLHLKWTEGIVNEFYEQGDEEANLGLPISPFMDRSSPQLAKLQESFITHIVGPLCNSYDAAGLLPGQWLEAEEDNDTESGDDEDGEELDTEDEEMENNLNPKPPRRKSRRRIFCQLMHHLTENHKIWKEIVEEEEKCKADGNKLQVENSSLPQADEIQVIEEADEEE
Chain of Murine PDE9A (O70628 whole entry): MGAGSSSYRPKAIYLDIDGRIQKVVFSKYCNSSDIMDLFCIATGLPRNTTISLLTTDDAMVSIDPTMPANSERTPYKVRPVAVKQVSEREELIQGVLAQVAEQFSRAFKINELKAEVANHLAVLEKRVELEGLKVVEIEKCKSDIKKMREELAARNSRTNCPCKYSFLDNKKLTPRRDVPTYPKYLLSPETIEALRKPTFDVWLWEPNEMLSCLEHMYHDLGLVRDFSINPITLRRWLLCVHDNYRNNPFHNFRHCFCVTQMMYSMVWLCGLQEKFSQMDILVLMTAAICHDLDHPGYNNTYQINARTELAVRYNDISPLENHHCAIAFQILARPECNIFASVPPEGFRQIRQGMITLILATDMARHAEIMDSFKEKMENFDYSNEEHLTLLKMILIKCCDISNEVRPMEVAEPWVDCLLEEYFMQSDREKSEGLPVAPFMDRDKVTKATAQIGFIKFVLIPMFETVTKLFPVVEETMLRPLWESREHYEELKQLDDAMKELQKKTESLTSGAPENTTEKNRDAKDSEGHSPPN
Chain of PDE7B (Q9NP56 whole entry): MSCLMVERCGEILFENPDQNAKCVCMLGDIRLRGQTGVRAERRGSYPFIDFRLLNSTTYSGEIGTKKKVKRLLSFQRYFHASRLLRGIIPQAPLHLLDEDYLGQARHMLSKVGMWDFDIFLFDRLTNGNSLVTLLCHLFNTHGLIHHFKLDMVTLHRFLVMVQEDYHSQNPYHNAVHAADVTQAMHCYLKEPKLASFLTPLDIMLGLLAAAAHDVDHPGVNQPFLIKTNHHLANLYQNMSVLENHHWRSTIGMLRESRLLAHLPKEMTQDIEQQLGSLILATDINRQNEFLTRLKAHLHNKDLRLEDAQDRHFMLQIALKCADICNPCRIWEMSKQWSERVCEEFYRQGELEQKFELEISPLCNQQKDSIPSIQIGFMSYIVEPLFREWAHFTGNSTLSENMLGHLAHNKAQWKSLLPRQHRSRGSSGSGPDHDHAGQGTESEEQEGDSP

## O=c1[nH]c(CC2CCCCC2)nc2c1cnn2C1CCCC1
other
  melting point: 147 °C

## CCC(CC)n1ncc2c(=O)[nH]c(CC3CCCCC3)nc21 [Example 2, 6-(Cyclohexylmethyl)-1-(1-ethylpropyl)-1,5-dihydro-4H-pyrazolo[3,4-d]-pyrimidin-4-one]
PDE3B
  IC50: > 4 µM
[1]
  LTP / potentiation of fEPSP after weak tetanus: significant increase in the LTP; also recorded: significantly augmented the increase in the fEPSP
PDE11
  IC50: > 4 µM
other
  melting point: 122 °C
[2]
  cGMP content of primary neurons: increase in the cGMP content
PDE2A
  IC50: > 4 µM
PDE4B
  IC50: > 4 µM
PDE8A
  IC50: > 4 µM
[3]
  social interaction time in trial 2 compared with vehicle: significantly reduced
PDE10A
  IC50: > 4 µM
PDE5A
  IC50: > 4 µM
PDE7B
  IC50: > 4 µM

## CC(C)Cn1c(=O)n(C)c(=O)c2[nH]cnc21 [IBMX]
Murine PDE9A
  inhibition of murine PDE9A: not inhibited
Human PDE9A
  inhibition on the isolated enzyme: no inhibition

## CC(=O)Nc1ccc(-c2c[nH]c(=O)cn2)cc1 [SKF94120]
Human PDE9A
  inhibition on the isolated enzyme: no inhibition

## OCCN(CCO)c1nc(N2CCCCC2)c2nc(N(CCO)CCO)nc(N3CCCCC3)c2n1 [dipyridamole]
Human PDE9A
  inhibition on the isolated enzyme: no inhibition

## COc1ccc(C2CNC(=O)C2)cc1OC1CCCC1 (stereo not shown) [rolipram]
Human PDE9A
  inhibition on the isolated enzyme: no inhibition

## CCOC(=O)C1=C[C@]2(CC)CCCN3CCc4c(n1c1ccccc41)[C@@H]32 [vinpocetine]
Human PDE9A
  inhibition on the isolated enzyme: no inhibition
